{
  "source": "paper PMC4579345",
  "about": "(Journal of acquired immune deficiency syndromes (1999), 2015)",
  "key": {"[1]": {"conditions": "mean (95%CI), ref 16 (Colbers, et al), cited from earlier work"}, "[2]": {"test_system": "HIV-1 RNA", "experiment": "Maternal HIV RNA at delivery and infant HIV infection status", "format": "in vivo", "conditions": "median (range)"}, "[3]": {"experiment": "Cord blood and maternal plasma darunavir concentrations at delivery", "format": "in vivo, human"}, "[4]": {"test_system": "HIV RNA", "conditions": "cited from earlier work"}, "[5]": {"experiment": "Clinical and laboratory toxicity monitoring of mothers and infants", "conditions": "human, in vivo"}, "[6]": {"conditions": "cited from earlier work; for Mean decrease in darunavir AUC: third trimester, ref 16 (Colbers, et al)"}, "[7]": {"test_system": "wild type HIV", "conditions": "cited from earlier work"}, "[8]": {"experiment": "Ritonavir pharmacokinetic parameters during pregnancy and postpartum", "format": "in vivo, human", "conditions": "for AUC(0-t): AUC0-12, twice daily dosing; for AUC(0-t) / Cmax: median (interquartile range)"}, "[9]": {"conditions": "of 43 subjects, limit 0.09 μg/mL"}},
  "note": "Read-outs that look alike come from different tables or passages of the source.",
  "data": [
    {"smiles": "CC(C)CN(C[C@@H](O)[C@H](Cc1ccccc1)NC(=O)O[C@H]1CO[C@H]2OCC[C@H]21)S(=O)(=O)c1ccc(N)cc1", "note": "[darunavir]", "values": [
      {"measurement": "Free fraction", "setting": "[1]; 14 women postpartum", "value": 10, "unit": "%"},
      {"measurement": "Free fraction", "setting": "[1]; 19 women in the third trimester", "value": 12, "unit": "%"},
      {"measurement": "HIV-1 RNA at delivery", "setting": "[2]; Combined N=66", "value": "<50 (<50 - 66,142) copies/mL"},
      {"measurement": "HIV-1 RNA at delivery", "setting": "[2]; Once Daily Dosing N=32", "value": "<50 (<50 - 35,313) copies/mL"},
      {"measurement": "HIV-1 RNA at delivery", "setting": "[2]; Twice Daily Dosing N=34", "value": "51 (<50 - 66,142) copies/mL"},
      {"measurement": "Maternal plasma delivery concentration", "setting": "[3]; median (range), samples above the limit of quantitation", "value": 1.98, "unit": "µg/mL"},
      {"measurement": "Cord blood samples with concentration below the assay limit of quantitation", "setting": "[3]; [9]", "value": 15},
      {"measurement": "Maternal samples with concentration below the assay limit of quantitation", "setting": "[3]; [9]", "value": 11},
      {"measurement": "Infected infants", "setting": "[4]; 12 mothers in the Zorrilla study who remained on therapy at delivery, 15 mothers in the Colbers study", "value": "no infected infants"},
      {"measurement": "Women with HIV RNA below 1000 copies/mL approaching delivery", "setting": "[4]; once daily dosing, ref 24 (Colbers, et al)", "value": 93, "unit": "%"},
      {"measurement": "Subjects with detectable HIV RNA (>50 copies/mL) during pregnancy", "setting": "[4]; twice daily dosing, ref 15 (Zorrilla, et al)", "value": "3 of 14"},
      {"measurement": "Subjects indicating side effects of darunavir as a reason for discontinuation", "setting": "[5]", "value": "No subjects"},
      {"measurement": "Tolerability during pregnancy and postpartum", "setting": "[5]", "value": "well tolerated"},
      {"measurement": "Mean decrease in darunavir AUC", "setting": "[6]; 6 women, twice daily dosing", "value": 34, "unit": "%"},
      {"measurement": "Decrease in darunavir AUC", "setting": "[6]; 14 women dosed twice daily, second and third trimesters, ref 15 (Zorrilla, et al)", "value": "17-24%"},
      {"measurement": "Mean decrease in darunavir AUC", "setting": "[6]; 18 women, once daily dosing", "value": 22, "unit": "%"},
      {"measurement": "EC50 for wild type HIV", "setting": "[7]", "value": 0.06, "unit": "μ/mL"}
    ]},
    {"smiles": "CC(C)c1nc(CN(C)C(=O)N[C@H](C(=O)N[C@@H](Cc2ccccc2)C[C@H](O)[C@H](Cc2ccccc2)NC(=O)OCc2cncs2)C(C)C)cs1", "note": "[ritonavir]", "values": [
      {"measurement": "AUC(0-t)", "setting": "[8]; female, human, plasma, oral, postpartum", "value": 5.6, "unit": "µg·h/mL"},
      {"measurement": "AUC(0-t)", "setting": "[8]; female, human, plasma, oral, second trimester", "value": 3.9, "unit": "µg·h/mL"},
      {"measurement": "AUC(0-t)", "setting": "[8]; female, human, plasma, oral, third trimester", "value": 3.8, "unit": "µg·h/mL"},
      {"measurement": "Cmax", "setting": "[8]; female, human, plasma, oral, Cmax, once daily dosing, postpartum", "value": 0.64, "unit": "µg/mL"},
      {"measurement": "Cmax", "setting": "[8]; female, human, plasma, oral, Cmax, twice daily dosing, second trimester", "value": 0.47, "unit": "µg/mL"},
      {"measurement": "Cmax", "setting": "[8]; female, human, plasma, oral, Cmax, twice daily dosing, third trimester", "value": 0.46, "unit": "µg/mL"},
      {"measurement": "Ritonavir exposure during pregnancy", "setting": "[8]; in vivo", "value": "reduced"},
      {"measurement": "Cmax", "setting": "[8]; once daily dosing, second trimester", "value": 0.29, "unit": "µg/mL"},
      {"measurement": "Cmax", "setting": "[8]; once daily dosing, third trimester", "value": 0.27, "unit": "µg/mL"}
    ]}
  ]
}
